Assay results reported in the CheMixHub ionic liquid set.

Experiment: xn = mol fraction of the nth substance listed
Conditions: for electrical conductivity: frequency 0.03 MHz

CCCCCC[n+]1ccn(C)c1.[Br-] + OC[C@H]1O[C@@](CO)(O[C@H]2O[C@H](CO)[C@@H](O)[C@H](O)[C@H]2O)[C@@H](O)[C@@H]1O + O
viscosity [mPa·s], 100 kPa
Conditions	288.15 K	298.15 K	308.15 K	318.15 K
x2 = 0.0009263, x1 = 0.001797	1.271	0.986	0.785	0.651
x2 = 0.000945, x1 = 0.003588	1.33	1.022	0.827	0.683
x2 = 0.001856, x1 = 0.001795	1.334	1.034	0.826	0.681
x2 = 0.001901, x1 = 0.003584	1.403	1.07	0.87	0.711
x2 = 0.001946, x1 = 0.005366	1.495	1.142	0.891	0.74
x2 = 0.002732, x1 = 0.001794	1.394	1.074	0.859	0.711
x2 = 0.002803, x1 = 0.003581	1.468	1.123	0.904	0.74
x2 = 0.002858, x1 = 0.005362	1.568	1.191	0.949	0.78
x2 = 0.003653, x1 = 0.001792	1.453	1.124	0.897	0.735
x2 = 0.003711, x1 = 0.003578	1.538	1.173	0.941	0.775
x2 = 0.003775, x1 = 0.005357	1.637	1.245	0.99	0.807
x2 = 0.004453, x1 = 0.003575	1.596	1.222	0.975	0.805
x2 = 0.004552, x1 = 0.005352	1.699	1.293	1.023	0.834
x2 = 0.005421, x1 = 0.001789	1.601	1.229	0.975	0.793
x2 = 0.005541, x1 = 0.003571	1.672	1.287	1.018	0.835
x2 = 0.005596, x1 = 0.005347	1.794	1.365	1.078	0.875
x2 = 0.006166, x1 = 0.001788	1.649	1.272	1.01	0.82
x2 = 0.006277, x1 = 0.003569	1.745	1.342	1.061	0.868
x2 = 0.006372, x1 = 0.005343	1.862	1.416	1.114	0.906
x2 = 0.007317, x1 = 0.001786	1.761	1.347	1.059	0.863
x2 = 0.007401, x1 = 0.005337	1.984	1.498	1.184	0.952
x2 = 0.007611, x1 = 0.003564	1.874	1.438	1.13	0.917
x2 = 0.00788, x1 = 0.001785	1.826	1.395	1.088	0.894
x2 = 0.008047, x1 = 0.003562	1.908	1.463	1.152	0.928
x2 = 0.008846, x1 = 0.005329	2.121	1.595	1.25	1.009

CCCCCC[n+]1ccn(C)c1.[I-] + [I-].[Li+]
101 kPa
Conditions	electrical conductivity [S/m]	viscosity [mPa·s]
288.1 K, x1 = 0.59	0.000226	–
293 K, x1 = 0.59	0.000466	–
298.1 K, x1 = 0.59	0.000891	15200
303 K, x1 = 1	–	1175
308.1 K, x1 = 0.59	0.0032	4263
313 K, x1 = 0.59	0.00537	–
318.1 K, x1 = 0.59	0.00863	–
328.1 K, x1 = 1	–	213
368.1 K, x1 = 1	–	38.5
